Laboratory results as given in US4599362A, “2-aryl-ethyl ether derivatives and insecticidal and acaricidal agents containing said derivatives” (priority 1980, dated 1986).
Like-named read-outs stand apart in the source and are kept apart here.

Key:
[1] = system: resistant green rice leafhopper (collected at Nakagawara); assay: Test 3: Effect on Resistant Green Rice Leafhopper; assay type: in vivo, Nephotettix cincticeps Uhler; details: Nephotettix cincticeps, 24 h, read-out: Mortality (%) Green Rice Leafhopper Collected at Nakagawara
Procedure: (§1) To a mixture of 20 parts of the compound of the present invention and 20 parts of Sorpol SM-200 (registered trademark for the product supplied by Toho Chemical Industrial Co., Ltd.) was added 60 parts of xylol, and the mixture was sufficiently blended. The obtained emulsifiable concentrate was diluted at a predetermined concentration with distilled water, and the obtained dilution was used.
(§2) Seedlings (having 2 to 3 leaves) of paddy rice were hydroponically cultured in a pot having a diameter of 5 cm. A chemical dilution having a concentration of 100 or 20 ppm, prepared in the same manner as described in Test 1, was applied with a sprayer at a rate of 3 ml per pot. The treated seedlings were air-dried and covered with a metal net cylinder, and female adults of resistant green rice leafhopper (collected at Nakagawara) and sensitive green rice leafhopper (collected at Chigasaki) were set, respectively, free in the pot at a density of 10 adults per pot. After of 24 hours, the numbers of killed and living adults were counted and the mortality was calculated. The test was made on three pots and the average value was calculated.

[2] = system: sensitive green rice leafhopper (collected at Chigasaki); assay: Test 3: Effect on Sensitive Green Rice Leafhopper; assay type: in vivo; details: Nephotettix cincticeps, female adults, 24 hours
Procedure: as §1, §2

two-spotted spider mite = assay: Test 6: Effect on Two-Spotted Spider mite adults; assay type: in vivo; details: Tetranychus urticae
Procedure: as §1
A kidney bean leaf disc perforated with a cork borer (15 mm in diameter) was placed on water-impreganated absorbent cotton (2 cm×2 cm), and 10 adults of two-spotted spider mite were set free. A chemical dilution having a concentration of 500 ppm was applied with an applicator in an amount of 3 ml.
The leaf disc-placed absorbent cotton was placed in a thermostat chamber maintained at 25° C. After 24 hours, the number of killed adults was counted and the mortality was calculated. The test was made on three leaf discs and the average value was calculated.

[3] = system: third-instar larvae of diamond back moth; assay: Test 4: Effect on Diamond Back Moth; assay type: in vivo; details: Plutella xylostella, 24 hours
Procedure: as §1
Cabbage leaves were spread in a plastic cup, and 10 third-instar larvae of diamond back moth were set free in the cup.
A chemical dilution having a concentration of 100 or 20 ppm, prepared in the same manner as described in Test 1, was applied from an applicator at a rate of 3 ml per cup.
After scattering of the chemical dilution, the cup was covered, and after 24 hours, the numbers of killed and living larvae were counted and the mortality was calculated. The test was made on three cups and the average value was calculated.

German cockroach = assay: Test 7: Effect on German Cockroach; assay type: in vivo; details: Blattella germanica, male adults, 24 hours, agonized and killed; for mortality at 10 mg/m2: 10 mg/m^2; for mortality at 50 mg/m2: 50 mg/m^2
Procedure: The bottom face of a high Petri dish having a diameter of 9 cm and a height of 9 cm was treated with 50 or 10 mg/m^2 of a test compound and the dish was air-dried. In order to prevent the adults from escaping from the dish, the inner wall of the dish was treated with butter. Then, 10 male adults of German cockroach were set free in each dish, and the dish was placed in a thermostat chamber maintained at 25° C. After 24 hours, the number of agonized and killed adults was counted. The test was made on two dishes and the average value was calculated.

[4] = Test 9: Toxicity Test (acute oral, mice); details: mouse, in vivo, po
Procedure: In the fish toxicity test, the test compound was dissolved in acetone to form a 1% solution, and a predetermined amount of the solution was used. In the mouse toxicity test, the test compound of the present invention was dissolved or suspended in corn oil, and a predetermined amount of the solution or suspension was used.
A predetermined amount of a solution or suspension of a test compound in corn oil was orally administered to male mice having a body weight of 19 to 23 g (0.2 ml per 10 g of the body weight). After 7 days, the number of killed mice was counted and the influences on the mice were examined.

[5] = system: Second-instar and fifth-instar larvae of tobacco cutworm; assay: Test 2: Tobacco Cutworm Larva Dipping Test; assay type: in vivo
Procedure: as §1
A dilution having a chemical concentration of 100 or 20 ppm was prepared in the same manner as described in Test 1.
Second-instar and fifth-instar larvae of tobacco cutworm were dipped in the dilution for 5 seconds, and the excessive dilution was removed by a filter paper. Then, the larvae were set free in a plastic cup and an artificial diet was supplied thereto. The cup was allowed to stand still in a thermostat chamber maintained at 25° C. After 24 hours, the numbers of the killed and living larvae were counted and the mortality was calculated. The test was made on three cups and the result was expressed by an average value.

[6] = 500 ppm, adults, 24 hours, read-out: Mortality (%)
[7] = 20 ppm, second-instar larvae, 24 hours, read-out: Mortality (%) Second-Instar Larvae
[8] = 100 ppm, second-instar larvae, 24 hours, read-out: Mortality (%) Second-Instar Larvae
[9] = topical, 24 h, read-out: Mortality (%) Fifth-Instar Larvae

SMILES | mortality at 20 ppm [1] [%] | mortality at 100 ppm [1] [%] | mortality at 20 ppm [2] [%] | mortality at 100 ppm [2] [%] | mortality at 20 ppm [3] [%] | mortality at 100 ppm [3] [%] | mortality at 10 mg/m2 (German cockroach) [%] | mortality at 50 mg/m2 (German cockroach) [%] | other results
CC(C)(COCc1ccc(F)c(Oc2ccccc2)c1)c1cccc(C(F)(F)F)c1 [Compound 17, 3-Phenoxy-4-fluorobenzyl 2-(3-trifluoromethylphenyl)-2-methylpropyl ether] | 100 | 100 | 90 | 100 |  |  |  |  | 
CC(C)(COCc1ccc(F)c(Oc2ccccc2F)c1)c1ccc(Cl)cc1 [Compound 11, 3-(2-Fluorophenoxy)-4-fluorobenzyl 2-(4-chlorophenyl)-2-methylpropyl ether] | 100 | 100 | 100 | 100 | 100 | 100 | 100 | 100 | mortality at 500 ppm (two-spotted spider mite; [6]): 100%
CCC(CC)(COCc1ccc(F)c(Oc2ccccc2)c1)c1ccc(Cl)cc1 [Compound 35, 3-Phenoxy-4-fluorobenzyl 2-(4-chlorophenyl)-2-ethylbutyl ether] | 100 | 100 | 90 | 100 |  |  |  |  | LD50 at 168 h [4]: > 500 mg/kg
Cc1cccc(Oc2cc(COCC(C)(C)c3ccc(Cl)cc3)ccc2F)c1 [Compound 22, 3-(3-Methylphenoxy)-4-fluorobenzyl 2-(4-chlorophenyl)-2-methylpropyl ether] | 75 | 100 | 60 | 100 |  |  |  |  | 
CC(C)c1ccc(C(C)(C)COCc2ccc(F)c(Oc3ccccc3)c2)cc1 [Compound 58] | 100 | 100 | 100 | 100 |  |  | 100 | 100 | mortality at 500 ppm (two-spotted spider mite; [6]): 100%
CCOc1ccc(C(COCc2ccc(F)c(Oc3ccccc3)c2)C(C)C)cc1 (centres unmarked) [Compound 62, 3-Phenoxy-4-fluorobenzyl 2-(4-ethoxyphenyl)-3-methylbutyl ether] | 100 | 100 | 100 | 100 | 100 | 100 |  |  | 
CC(C)(COCc1cc(Oc2ccccc2)ccc1F)c1ccc(Cl)cc1 [Compound 32, 3-Phenoxy-6-fluorobenzyl 2-(4-chlorophenyl)-2-methylpropyl ether] |  |  |  |  |  |  |  |  | LD50 at 168 h [4]: > 500 mg/kg
CCCOc1ccc(C(C)(C)COCc2ccc(F)c(Oc3ccccc3)c2)cc1 [Compound 65] | 100 | 100 | 100 | 100 | 100 | 100 | 100 | 100 | 
CC(C)(COCc1ccc(F)c(Oc2ccccc2)c1)c1ccc(I)cc1 [Compound 66, 3-Phenoxy-4-fluorobenzyl 2-(4-iodophenyl)-2-methylpropyl ether] | 100 | 100 | 100 | 100 | 90 | 100 | 100 | 100 | mortality at 20 ppm [5, 7]: 90%; mortality at 100 ppm [5, 8]: 100%; mortality at 20 ppm [5, 9]: 75%; mortality at 100 ppm [5, 9]: 100%; mortality at 500 ppm (two-spotted spider mite; [6]): 100%
Cc1ccc(C(C)(C)COCc2cc(Cl)cc(Oc3ccccc3)c2)cc1 [Compound 37, 3-Phenoxy-5-chlorobenzyl 2-(4-methylphenyl)-2-methylpropyl ether] |  |  |  |  |  |  |  |  | LD50 at 168 h [4]: > 500 mg/kg
CCC(C)Oc1ccc(C(C)(C)COCc2ccc(F)c(Oc3ccccc3)c2)cc1 (centres unmarked) [Compound 63] | 100 | 100 | 100 | 100 |  |  | 100 | 100 | mortality at 500 ppm (two-spotted spider mite; [6]): 100%
CCOP(=S)(OCC)Oc1ccc(=O)n(-c2ccccc2)n1 [(d), 0,0-diethyl-0-(3-oxo-2-phenyl-2H-pyridazin-6-yl)-phosphorothioate, reference compound] |  |  |  |  |  |  |  |  | mortality at 500 ppm (two-spotted spider mite; 24 h): 80%
CC(C)(COCc1ccc(F)c(Oc2ccccc2)c1)c1ccc2c(c1)OCO2 [Compound 33, 3-Phenoxy-4-fluorobenzyl 2-(3,4-methylenedioxyphenyl)-2-methylpropyl ether] | 100 | 100 | 100 | 100 |  |  |  |  | 
CC(C)(COCc1ccc(F)c(Oc2ccccc2)c1)c1ccc([N+](=O)[O-])cc1 [Compound 30, 3-Phenoxy-4-fluorobenzyl 2-(4-nitrophenyl)-2-methylpropyl ether] | 90 | 100 | 80 | 100 |  |  |  |  | 
COc1ccc(Oc2cc(COCC(C)(C)c3ccc(Cl)cc3)ccc2F)cc1 [Compound 13, 3-(4-Methoxyphenoxy)-4-fluorobenzyl 2-(4-chlorophenyl)-2-methylpropyl ether] | 70 | 100 | 50 | 100 |  |  |  |  | LD50 at 168 h [4]: > 500 mg/kg
CC(C)(COCc1ccc(F)c(Oc2ccccc2)c1)c1ccc(F)c(Cl)c1 [Compound 50, 3-Phenoxy-4-fluorobenzyl 2-(3-chloro-4-fluorophenyl)-2-methylpropyl ether] |  |  |  |  |  |  | 100 | 100 | mortality at 20 ppm [5, 7]: 90%; mortality at 100 ppm [5, 8]: 100%; mortality at 20 ppm [5, 9]: 80%; mortality at 100 ppm [5, 9]: 100%
CCOc1ccc(Oc2cc(COCC(C)(C)c3ccc(OCC)cc3)ccc2F)cc1 [Compound 53, 3-(4-Ethoxyphenoxy)-4-fluorobenzyl 2-(4-ethoxyphenyl)-2-methylpropyl ether] | 100 | 100 | 90 | 100 |  |  | 100 | 100 | 
CC(=O)c1ccc(C(C)(C)COCc2ccc(F)c(Oc3ccccc3)c2)cc1 [Compound 40] |  |  |  |  |  |  |  |  | LD50 at 168 h [4]: > 500 mg/kg
CCOc1ccc(C(CC)COCc2ccc(F)c(Oc3ccccc3)c2)cc1 (centres unmarked) [Compound 47, 3-Phenoxy-4-fluorobenzyl 2-(4-ethoxyphenyl)-butylether] |  |  |  |  | 100 | 100 | 100 | 100 | mortality at 500 ppm (two-spotted spider mite; [6]): 85%
CCOc1cccc(C(C)(C)COCc2ccc(F)c(Oc3ccccc3)c2)c1 [Compound 57] | 100 | 100 | 100 | 100 | 100 | 100 |  |  | 
CCOc1ccc(C(C)(CC)COCc2ccc(F)c(Oc3ccccc3)c2)cc1 (centres unmarked) [Compound 55, 3-Phenoxy-4-fluorobenzyl 2-(4-ethoxyphenyl)-2-methylbutyl ether] |  |  |  |  | 100 | 100 | 100 | 100 | 
